Source: patent US12077503B2, “Substituted cyclic amides and their use as herbicides” (FMC CORPORATION, priority 2015, dated 2024)

Legend:
Format in all cases: in vivo
[1] = test system: velvetleaf (Abutilon theophrasti); test: Test G Pre-Emergence Protocol; conditions: Abutilon theophrasti, pre-emergence, 312 h, evaluated after 13 days; for pest or weed control at 15.625 g/ha: 15.625 g ai/ha; for pest or weed control at 15.625 g/ha / pest or weed control at 250 g/ha: read-out: Velvetleaf damage rating (100=total damage to plant; 0=no damage to plant); for pest or weed control at 62.5 g/ha: 62.5 g ai/ha, 100=total damage to plant, 0=no damage to plant, read-out: Velvetleaf damage rating; for pest or weed control at 250 g/ha: 250 g ai/ha
In short: (§1)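 Visual injury (0–100) at day 13 after a single pre-emergence spray. Rates: 15.625, 62.5, 250 g/ha in acetone–water 50:50 with 0.5% Tween 20. Growth conditions: 24/16° C, 14 h light, 65% humidity.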

[2] = test system: ivy-leaved morning glory (Ipomoea hederacea); test: Test G Pre-Emergence Protocol; conditions: Ipomoea, pre-emergence, 312 h, evaluated after 13 days; for pest or weed control at 15.625 g/ha: 15.625 g ai/ha; for pest or weed control at 15.625 g/ha / pest or weed control at 250 g/ha: read-out: Morningglory, Ivy-leaved damage rating (100=total damage to plant; 0=no damage to plant); for pest or weed control at 62.5 g/ha: 62.5 g ai/ha, 100=total damage to plant, 0=no damage to plant, read-out: Morningglory, Ivy-leaved damage rating; for pest or weed control at 250 g/ha: 250 g ai/ha
In short: as §1

[3] = test system: corn (Zea mays); test: Test G Pre-Emergence Protocol; conditions: Zea mays, pre-emergence, 312 h, evaluated after 13 days; for plant injury at 15.625 g/ha: 15.625 g ai/ha; for plant injury at 15.625 g/ha / plant injury at 250 g/ha: read-out: Corn damage rating (100=total damage to plant; 0=no damage to plant); for plant injury at 62.5 g/ha: 62.5 g ai/ha, 100=total damage to plant, 0=no damage to plant, read-out: Corn damage rating; for plant injury at 250 g/ha: 250 g ai/ha
In short: as §1

[4] = test system: redroot pigweed (Amaranthus retroflexus); test: Test G Pre-Emergence Protocol; conditions: Amaranthus retroflexus, pre-emergence, 312 h, evaluated after 13 days; for pest or weed control at 15.625 g/ha: 15.625 g ai/ha; for pest or weed control at 15.625 g/ha / pest or weed control at 250 g/ha: read-out: Pigweed, Redroot damage rating (100=total damage to plant; 0=no damage to plant); for pest or weed control at 62.5 g/ha: 62.5 g ai/ha, 100=total damage to plant, 0=no damage to plant, read-out: Pigweed, Redroot damage rating; for pest or weed control at 250 g/ha: 250 g ai/ha
In short: as §1

[5] = test system: barnyardgrass (Echinochloa crus-galli); test: Test G Pre-Emergence Protocol; conditions: Echinochloa crus-galli, pre-emergence, 312 h, evaluated after 13 days; for pest or weed control at 15.625 g/ha: 15.625 g ai/ha; for pest or weed control at 15.625 g/ha / pest or weed control at 250 g/ha: read-out: Barnyardgrass damage rating (100=total damage to plant; 0=no damage to plant); for pest or weed control at 62.5 g/ha: 62.5 g ai/ha, 100=total damage to plant, 0=no damage to plant, read-out: Barnyardgrass damage rating; for pest or weed control at 250 g/ha: 250 g ai/ha
In short: as §1

[6] = test system: giant foxtail (Setaria faberi); test: Test G Pre-Emergence Protocol; conditions: Setaria faberi, pre-emergence, 312 h, evaluated after 13 days; for pest or weed control at 15.625 g/ha: 15.625 g ai/ha; for pest or weed control at 15.625 g/ha / pest or weed control at 250 g/ha: read-out: Foxtail, Giant damage rating (100=total damage to plant; 0=no damage to plant); for pest or weed control at 62.5 g/ha: 62.5 g ai/ha, 100=total damage to plant, 0=no damage to plant, read-out: Foxtail, Giant damage rating; for pest or weed control at 250 g/ha: 250 g ai/ha
In short: as §1

[7] = test system: velvetleaf (Abutilon theophrasti); test: Test G Post-Emergence Protocol; conditions: Abutilon theophrasti, post-emergence, 312 h, read-out: Velvetleaf damage rating; for pest or weed control at 15.625 g/ha: 15.625 g ai/ha, evaluated after 13 days (100=total damage to plant; 0=no damage to plant); for pest or weed control at 62.5 g/ha: 62.5 g ai/ha; for pest or weed control at 62.5 g/ha / pest or weed control at 250 g/ha: evaluated after 13 days, 100=total damage to plant, 0=no damage to plant; for pest or weed control at 250 g/ha: 250 g ai/ha
In short: (§2)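 Seedlings grown 8 days in soil in a glasshouse (24/16 °C day/night, 14 h light, 65% humidity) were sprayed post-emergence with compound in acetone/water 50:50 plus 0.5% Tween 20 at 15.625, 62.5 or 250 g/ha. Damage was scored after 13 days on a 0–100 scale (100 = total damage).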

[8] = test system: ivy-leaved morning glory (Ipomoea hederacea); test: Test G Post-Emergence Protocol; conditions: Ipomoea, post-emergence, 312 h, read-out: Morningglory, Ivy-leaved damage rating; for pest or weed control at 15.625 g/ha: 15.625 g ai/ha, evaluated after 13 days (100=total damage to plant; 0=no damage to plant); for pest or weed control at 62.5 g/ha: 62.5 g ai/ha; for pest or weed control at 62.5 g/ha / pest or weed control at 250 g/ha: evaluated after 13 days, 100=total damage to plant, 0=no damage to plant; for pest or weed control at 250 g/ha: 250 g ai/ha
In short: as §2

[9] = test system: corn (Zea mays); test: Test G Post-Emergence Protocol; conditions: Zea mays, post-emergence, 312 h, read-out: Corn damage rating; for plant injury at 15.625 g/ha: 15.625 g ai/ha, evaluated after 13 days (100=total damage to plant; 0=no damage to plant); for plant injury at 62.5 g/ha: 62.5 g ai/ha; for plant injury at 62.5 g/ha / plant injury at 250 g/ha: evaluated after 13 days, 100=total damage to plant, 0=no damage to plant; for plant injury at 250 g/ha: 250 g ai/ha
In short: as §2

[10] = test system: redroot pigweed (Amaranthus retroflexus); test: Test G Post-Emergence Protocol; conditions: Amaranthus retroflexus, post-emergence, 312 h, read-out: Pigweed, Redroot damage rating; for pest or weed control at 15.625 g/ha: 15.625 g ai/ha, evaluated after 13 days (100=total damage to plant; 0=no damage to plant); for pest or weed control at 62.5 g/ha: 62.5 g ai/ha; for pest or weed control at 62.5 g/ha / pest or weed control at 250 g/ha: evaluated after 13 days, 100=total damage to plant, 0=no damage to plant; for pest or weed control at 250 g/ha: 250 g ai/ha
In short: as §2

[11] = test system: barnyardgrass (Echinochloa crus-galli); test: Test G Post-Emergence Protocol; conditions: Echinochloa crus-galli, post-emergence, 312 h, read-out: Barnyardgrass damage rating; for pest or weed control at 15.625 g/ha: 15.625 g ai/ha, evaluated after 13 days (100=total damage to plant; 0=no damage to plant); for pest or weed control at 62.5 g/ha: 62.5 g ai/ha; for pest or weed control at 62.5 g/ha / pest or weed control at 250 g/ha: evaluated after 13 days, 100=total damage to plant, 0=no damage to plant; for pest or weed control at 250 g/ha: 250 g ai/ha
In short: as §2

[12] = test system: giant foxtail (Setaria faberi); test: Test G Post-Emergence Protocol; conditions: Setaria faberi, post-emergence, 312 h, read-out: Foxtail, Giant damage rating; for pest or weed control at 15.625 g/ha: 15.625 g ai/ha, evaluated after 13 days (100=total damage to plant; 0=no damage to plant); for pest or weed control at 62.5 g/ha: 62.5 g ai/ha; for pest or weed control at 62.5 g/ha / pest or weed control at 250 g/ha: evaluated after 13 days, 100=total damage to plant, 0=no damage to plant; for pest or weed control at 250 g/ha: 250 g ai/ha
In short: as §2

| SMILES | pest or weed control at 15.625 g/ha [1] [%] | pest or weed control at 62.5 g/ha [1] [%] | pest or weed control at 250 g/ha [1] [%] | pest or weed control at 15.625 g/ha [2] [%] | pest or weed control at 62.5 g/ha [2] [%] | pest or weed control at 250 g/ha [2] [%] | plant injury at 15.625 g/ha [3] [%] | plant injury at 62.5 g/ha [3] [%] | plant injury at 250 g/ha [3] [%] | pest or weed control at 15.625 g/ha [4] [%] | pest or weed control at 62.5 g/ha [4] [%] | pest or weed control at 250 g/ha [4] [%] | pest or weed control at 15.625 g/ha [5] [%] | pest or weed control at 62.5 g/ha [5] [%] | pest or weed control at 250 g/ha [5] [%] | pest or weed control at 15.625 g/ha [6] [%] | pest or weed control at 62.5 g/ha [6] [%] | pest or weed control at 250 g/ha [6] [%] | pest or weed control at 15.625 g/ha [7] [%] | pest or weed control at 62.5 g/ha [7] [%] | further results |
| --- | --- | --- | --- | --- | --- | --- | --- | --- | --- | --- | --- | --- | --- | --- | --- | --- | --- | --- | --- | --- | --- |
| Cc1c(F)cccc1NC(=O)[C@@H]1C(=O)N(C)C[C@H]1c1cccc(OCC2CC2)c1 (racemic) [Compound 1766] | 0 | 0 | 10 | 0 | 0 | 0 | 20 | 10 | 20 | 0 | 0 | 0 | 10 | 60 | 80 | 30 | 70 | 70 | 0 | 0 | pest or weed control at 250 g/ha [7]: 10%; pest or weed control at 15.625 g/ha [8]: 0%; pest or weed control at 62.5 g/ha [8]: 20%; pest or weed control at 250 g/ha [8]: 40%; plant injury at 15.625 g/ha [9]: 30%; plant injury at 62.5 g/ha [9]: 20%; plant injury at 250 g/ha [9]: 60%; pest or weed control at 15.625 g/ha [10]: 0%; pest or weed control at 62.5 g/ha [10]: 0%; pest or weed control at 250 g/ha [10]: 20%; pest or weed control at 15.625 g/ha [11]: 60%; pest or weed control at 62.5 g/ha [11]: 30%; pest or weed control at 250 g/ha [11]: 80%; pest or weed control at 15.625 g/ha [12]: 20%; pest or weed control at 62.5 g/ha [12]: 50%; pest or weed control at 250 g/ha [12]: 80% |
| CN1C[C@H](c2cccc(Cl)c2)[C@@H](C(=O)Nc2cnccc2C(F)(F)F)C1=O (racemic) [Compound 1772] | 0 | 0 | 40 | 0 | 0 | 60 | 0 | 0 | 60 | 0 | 0 | 10 | 0 | 10 | 80 | 30 | 80 | 90 | 0 | 0 | pest or weed control at 250 g/ha [7]: 30%; pest or weed control at 15.625 g/ha [8]: 0%; pest or weed control at 62.5 g/ha [8]: 30%; pest or weed control at 250 g/ha [8]: 50%; plant injury at 15.625 g/ha [9]: 0%; plant injury at 62.5 g/ha [9]: 0%; plant injury at 250 g/ha [9]: 60%; pest or weed control at 15.625 g/ha [10]: 0%; pest or weed control at 62.5 g/ha [10]: 0%; pest or weed control at 250 g/ha [10]: 10%; pest or weed control at 15.625 g/ha [11]: 0%; pest or weed control at 62.5 g/ha [11]: 0%; pest or weed control at 250 g/ha [11]: 30%; pest or weed control at 15.625 g/ha [12]: 10%; pest or weed control at 62.5 g/ha [12]: 60%; pest or weed control at 250 g/ha [12]: 80% |
| CN1C[C@H](c2cccc(C(C)(C)C#N)c2)[C@@H](C(=O)Nc2ccccc2S(C)(=O)=O)C1=O (racemic) [Compound 1784] | 0 | 0 | 0 | 0 | 0 | 10 | 0 | 0 | 0 | 0 | 0 | 0 | 0 | 10 | 10 | 10 | 0 | 40 | 0 | 0 | pest or weed control at 250 g/ha [7]: 0%; pest or weed control at 15.625 g/ha [8]: 0%; pest or weed control at 62.5 g/ha [8]: 0%; pest or weed control at 250 g/ha [8]: 0%; plant injury at 15.625 g/ha [9]: 0%; plant injury at 62.5 g/ha [9]: 0%; plant injury at 250 g/ha [9]: 0%; pest or weed control at 15.625 g/ha [10]: 0%; pest or weed control at 62.5 g/ha [10]: 0%; pest or weed control at 250 g/ha [10]: 0%; pest or weed control at 15.625 g/ha [11]: 0%; pest or weed control at 62.5 g/ha [11]: 0%; pest or weed control at 250 g/ha [11]: 0%; pest or weed control at 15.625 g/ha [12]: 0%; pest or weed control at 62.5 g/ha [12]: 0%; pest or weed control at 250 g/ha [12]: 0% |
